Data as given in PMC7076710, “Synthesis, Identification, and Structure–Activity Relationship Analysis of GATA4 and NKX2-5 Protein–Protein Interaction Modulators” (Journal of Medicinal Chemistry, 2019).
Read-outs that look alike come from different tables or passages of the source.

What was measured:
Type in all cases: cell-based
[1] = target: T1, GATA4–NKX2-5 transcriptional synergy (Mus musculus, UniProt P42582+Q08369); assay: GATA4–NKX2-5 transcriptional synergy luciferase reporter assay (3xNKE reporter, COS-1 cells)
T1 construct: expressed in transfected cells; host or cells: COS-1

[2] = target: T2, NKX2-5 transcriptional activity (Mus musculus, UniProt P42582); assay: NKX2-5 luciferase reporter assay (3xNKE reporter, COS-1 cells); conditions: for activity at 3 µM: read-out: NKX.3µM; for activity at 10 µM: read-out: NKX.10µM
T2 construct: expressed in transfected cells; host or cells: COS-1
Protocol: (§1) To screen compounds for the GATA4–NKX2-5 interaction, we have developed a luciferase reporter assay based on their property to activate gene transcription synergistically through the NKX2-5 binding site on DNA.[28] In this assay, we transfected mammalian COS-1 cells with protein expression vectors for GATA4 and NKX2-5 proteins together with artificial luciferase reporter vector containing three high affinity binding sites for NKX2-5 (NKE). […] All 257 compounds were tested in two concentrations, 3 and 10 μM. Compounds either inhibited, enhanced, or had no effect on the GATA4–NKX2-5 transcriptional synergy. To investigate the selectivity of the active compounds, we tested their effects on NKX2-5 transcriptional activity by using the same luciferase reporter vector as in transcriptional synergy assay with three NKE sites (Figure 3B). Furthermore, we used GATA luciferase reporter assay to examine if compounds have an effect on GATA4 transcriptional activity. In this assay, we cotransfected the cells with a GATA4 protein expression vector and a reporter vector with tandem GATA4 binding sites (Figure 3C). Previously we have reported that compound 1 inhibited the GATA4–NKX2-5 transcriptional synergy at micromolar concentrations (IC50 = 3 μM).[29]
(§2) The plasmids expressing mouse GATA4 protein, pMT2-GATA4, and empty pMT2 were gifts from D. B. Wilson (Department of Pediatrics, St. Louis Children’s Hospital, St. Louis, MO).[44] The plasmids expressing mouse NKX2-5 protein, pMT2-NKX2-5, have been described earlier.[28] The luciferase reporter plasmid used in GATA4–NKX2-5 transcriptional synergy assay and NKX transcriptional assay, pGL3-3xHA, contains three high affinity binding sites for NKX2-5.[28] The luciferase reporter plasmid used in GATA transcriptional assay, NP-112, contains tandem GATA-sites and minimal promoter of rat brain natriuretic peptide (BNP) gene.[45] The pGL3-BNP luciferase reporter containing −534/+4 bp rat BNP proximal promoter described previously was used in hypertrophy assay.[46]
(§3) The primary screening assay of compounds’ effect on GATA4–NKX2-5 transcriptional synergy and COS-1 cell culturing has been described earlier.[33] […] (Kinnunen et al., unpublished observation). Briefly, COS-1 cells were seeded at 14 000 cells/well in Isoplate-96 microplates (PerkinElmer, Turku, Finland) and grown overnight. The cells were transfected with the luciferase reporter plasmid pGL3-3xHA 100 ng/well and equal amounts of expression plasmids pMT2-GATA4 and pMT2-NKX2-5 total 50 ng/well. To verify the synergistic effect, the cells were transfected with pMT2-GATA4 or pMT2-NKX2-5 25 ng/well, and the total DNA concentration was adjusted to 50 ng/well with empty pMT2 plasmid. In NKX2-5 and GATA4 luciferase reporter assays, the cells were transfected with reporter plasmid pGL3-3xHA or NP-112 (100 ng/well) and expression plasmid pMT2-NKX2-5 or pMT2-GATA4 (25 ng/well). The ratio of DNA/transfection reagent (Fugene 6, Promega) was 1:3 in all assays. The transfections were performed in serum and antibiotics free media for 6 h. The cells were treated with compounds or vehicle (0.1% DMSO) for 24 h, and the luminescence was measured using neolite Reporter Gene Assay System (PerkinElmer, Turku, Finland) and Victor2 plate reader (PerkinElmer, Turku, Finland).
(§4) Raw luciferase data were analyzed in Excel, and clear outliers were removed from triplicates by using the Grubb’s test. Data analysis was performed using R.[49] The luciferase data were first normalized on the basis of the combined mean value of controls. For data visualization and creation of figures, the following R packages were used: ggplot2, cowplot, RColorBrewer, and pheatmap. The heatmaps of the toxicity data were produced with GraphPad Prism 7.00 (GraphPad Software, La Jolla, CA). Statistical significance of luciferase reporter assay data was evaluated by randomized block analysis of variance followed by Dunnett’s post hoc test. […]

[3] = target: T3, GATA4 transcriptional activity (Mus musculus, UniProt Q08369); assay: GATA4 luciferase reporter assay (tandem GATA-site reporter, COS-1 cells)
T3 construct: expressed in transfected cells; host or cells: COS-1
Protocol: as §1, §2, §3, §4

[4] = tested on: COS-1 cells; assay: LDH assay (necrosis)
Excerpt: (§5) To investigate the toxicity as a potential cause of decreased or increased activity in luciferase reporter gene assays, we tested a set of 40 active compounds in the COS-1 cell line used for the luciferase assays. Concentration-dependent toxic effects were investigated using the lactate dehydrogenase (LDH) assay to detect necrosis and the 3-(4,5-dimethylthiazol-2-yl)-2,5-diphenyltetrazolium bromide (MTT) assay as a measure of cell viability. […] For the data analysis, compounds were classified as toxic (Figures 5 and 7) if they induced a >10% decrease in cell viability in the MTT assay at the concentration of 10 μM. The most toxic compounds (35a, 35d, 54, 58, and 63–65) in the MTT assay all contained a phenyl substituent in the southern part ring, while the ortho-nitrophenyl-derivative 39g and the phenyl-substituted thiophene 47t were nontoxic. Higher flexibility in the central parts of the ethers (35a, 35d) and N-acylated amines (58, 64) might contribute to their toxicity, because less rigid compounds are more likely to have affinity to various biological targets. Such interactions can cause toxicity. To confirm and validate the results from MTT assays, we tested three nontoxic (2, 47s, and 72) and three toxic (1, 35a, and 58) compounds in a cell viability assay measuring intracellular ATP content.
(§6) Figure 5 Effects of selected compounds on COS-1 cell viability. (A) Compound-induced necrosis was quantified with the LDH assay after a 24-h compound exposure. The data are presented as cytotoxicity percentage (% of maximal LDH release). (B) Cell viability was analyzed with the MTT assay after a 24-h compound exposure. (A,B) The data are means from 2–3 independent experiments with 3 replicate wells in each and are presented as % of control (vehicle-treated cells). The compounds have been grouped on the basis of the structure of the central part: a, amide; b, ether; c, N-acylated amine; d, amine; and e, imine. (C) The effects of selected compounds on cell viability as determined by ATP content after a 24-h compound exposure. The data are mean + SEM from three independent experiments and are presented as % of vehicle-treated cells.
(§7) For toxicity screening, COS-1 cells were cultured in DMEM (Sigma-Aldrich, Steinheim, Germany) supplemented with 10% fetal bovine serum, 100 U/mL penicillin, and 100 μg/mL streptomycin (all from Gibco, Thermo Scientific) at 37 °C with 5% CO2. The cells were plated on 96-well plates at 10 000 cells/well and exposed to test compounds at a concentration range of 1–30 μM on the following day. After a 24-h compound treatment, lactate dehydrogenase (LDH) and 3-(4,5-dimethylthiazol-2-yl)-2,5-diphenyltetrazolium bromide (MTT) assays were carried out as described previously.[48] Briefly, LDH activity was determined from 50 μL samples of cell culture medium, to which 50 μL of substrate solution [1.3 mM β-nicotinamide-adenine dinucleotide, 660 μM iodonitrotetrazolium, 54 mM L(+)-lactic acid, and 280 μM phenazine methosulfate in 0.2 M Tris-HCl, pH 8.2, all from Sigma-Aldrich] was added, and the plate was incubated for 30 min at room temperature. The reaction was stopped with acetic acid (final concentration 333 mM), and absorbance was measured at 490 nm. The absorbance values of the samples were normalized to maximal LDH release and spontaneous LDH release determined on the same plate. Mitochondrial metabolic activity was quantified by incubating the cells with 0.5 mg/mL MTT (from Sigma-Aldrich) for 2 h at 37 °C with 5% CO2, whereafter culture medium was removed and formazan crystals were dissolved in DMSO. The absorbance was measured at 550 nm, and absorbance at 650 nm was subtracted as background.

[5] = tested on: COS-1 cells; assay: MTT assay (cell viability)
Excerpt: as §5, §6, §7

[6] = COS-1, 3 µM, luciferase reporter activity, % of control
[7] = COS-1, 10 µM, luciferase reporter activity, % of control
[8] = COS-1, compound 3 µM, luciferase reporter activity, spread in separate STDEV column
[9] = COS-1, compound 10 µM, luciferase reporter activity, spread in separate STDEV column
[10] = 3 µM compound, GATA4–NKX2-5 transcriptional synergy reporter, COS-1 cells
[11] = 3 µM compound, NKX2-5 luciferase reporter, COS-1 cells
[12] = 3 µM compound, GATA4 luciferase reporter, COS-1 cells
[13] = 10 µM compound, GATA4–NKX2-5 transcriptional synergy reporter, COS-1 cells
[14] = 10 µM compound, NKX2-5 luciferase reporter, COS-1 cells
[15] = 10 µM compound, GATA4 luciferase reporter, COS-1 cells
[16] = COS-1, compound at 3 µM, luciferase reporter activity, % of control

T1 sequence (Q08369 whole entry): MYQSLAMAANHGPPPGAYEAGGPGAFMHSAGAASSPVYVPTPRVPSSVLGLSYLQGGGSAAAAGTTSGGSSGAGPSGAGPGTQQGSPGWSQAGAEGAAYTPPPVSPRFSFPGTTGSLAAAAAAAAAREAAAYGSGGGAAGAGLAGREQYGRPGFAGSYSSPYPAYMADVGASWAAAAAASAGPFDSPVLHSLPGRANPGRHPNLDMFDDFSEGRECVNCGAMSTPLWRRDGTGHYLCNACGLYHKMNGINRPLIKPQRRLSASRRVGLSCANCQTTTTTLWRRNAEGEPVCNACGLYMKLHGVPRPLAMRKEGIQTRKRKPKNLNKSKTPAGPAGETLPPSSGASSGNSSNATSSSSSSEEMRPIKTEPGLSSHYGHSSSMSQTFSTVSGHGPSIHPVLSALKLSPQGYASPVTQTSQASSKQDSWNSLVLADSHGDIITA
T1 sequence (P42582 whole entry): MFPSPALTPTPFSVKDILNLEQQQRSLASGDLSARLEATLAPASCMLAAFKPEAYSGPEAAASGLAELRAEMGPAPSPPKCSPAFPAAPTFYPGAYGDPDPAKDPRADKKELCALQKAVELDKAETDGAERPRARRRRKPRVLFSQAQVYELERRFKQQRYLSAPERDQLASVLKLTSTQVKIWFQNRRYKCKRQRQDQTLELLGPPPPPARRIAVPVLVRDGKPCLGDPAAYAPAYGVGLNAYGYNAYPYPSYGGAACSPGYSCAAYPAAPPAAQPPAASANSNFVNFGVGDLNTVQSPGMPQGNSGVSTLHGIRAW
T3 sequence (Q08369 whole entry): as the sequence (Q08369 whole entry) above
T2 sequence (P42582 whole entry): as the sequence (P42582 whole entry) above

`Cc1onc(-c2ccccc2)c1C(=O)Nc1ccc(-c2ccccc2)cc1` [Compound 4f] showed an activity at 3 µM [1, 6] of 72.7%, an activity at 10 µM [1, 7] of 112% and an activity at 3 µM [2, 6] of 91%. It also gave an activity at 3 µM [3, 6] of 102% and an activity at 10 µM [3, 7] of 114%.

For `Cc1onc(-c2ccccc2)c1C(=O)Nc1nc(C(C)(C)C)cs1` [Compound 4k, N-[4-(tert-Butyl)thiazol-2-yl]-5-methyl-3-phenylisoxazole-4-carboxamide], the activity at 3 µM [1, 8] was 117%, the activity at 10 µM [1, 9] was 115% and the activity at 3 µM [2, 8] was 97.7%. It also gave an activity at 3 µM [3, 8] of 109% and an activity at 10 µM [3, 9] of 114%.

`Cc1onc(-c2ccccc2)c1C(=O)Nc1ccc(C(=O)OCCCC#N)cc1` [Compound 10b] showed an activity at 3 µM [1, 8] of 93%, an activity at 3 µM [2, 8] of 105% and an activity at 3 µM [3, 8] of 103%. The activity at 10 µM [3, 9] was 114%.

With `Cc1onc(-c2ccccc2)c1C(=O)Nc1ccc(C(=O)OCCCCC#N)cc1` [Compound 10c] the activity at 3 µM [1, 8] was 101%, the activity at 3 µM [2, 8] was 102% and the activity at 10 µM [2, 9] was 147%. For the same compound, the activity at 3 µM [3, 8] was 109% and the activity at 10 µM [3, 9] was 102%.

For `CCN(CC)c1ccc(N(C)C(=O)c2c(-c3ccccc3)noc2C)cc1` [Compound 25a], the activity at 3 µM [1, 6] was 78.1% and the activity at 10 µM [2, 7] was 101%.

`CCC(=O)c1ccc(OCc2c(-c3ccccc3)noc2C)cc1` [Compound 34a, 1-[4-[(5-Methyl-3-phenylisoxazol-4-yl)methoxy]phenyl]propan-1-one] gave an activity at 3 µM [1, 6] of 90.9%, an activity at 3 µM [2, 6] of 111% and an activity at 3 µM [3, 6] of 106%.

`Cc1onc(-c2ccccc2)c1COc1ccc(C(=O)OCCCC#N)cc1` [Compound 35b, 3-Cyanopropyl 4-[(5-Methyl-3-phenylisoxazol-4-yl)methoxy]benzoate] gave an activity at 3 µM [1, 10] of 85.5%, an activity at 3 µM [2, 11] of 82.5% and an activity at 3 µM [3, 12] of 73.9%.

For `CCc1noc(C)c1C(=O)Nc1ccc(N(CC)CC)cc1` [Compound 39b], the activity at 3 µM [1, 10] was 97.5%, the activity at 10 µM [1, 13] was 104% and the activity at 3 µM [2, 11] was 124%. For the same compound, the activity at 10 µM [2, 14] was 164%, the activity at 3 µM [3, 12] was 120% and the activity at 10 µM [3, 15] was 143%.

Compound `CCN(CC)c1ccc(NC(=O)c2c(-c3cccc([N+](=O)[O-])c3)noc2C)cc1` [Compound 39g] has an activity at 3 µM ([1]; COS-1, 3 µM, luciferase reporter activity relative to control) of 93.4%, an LDH.1µM ([4]; 1 µM) of 1.8 and an LDH.3µM ([4]; 3 µM) of 1.19. It also gave an LDH.10µM ([4]; 10 µM) of -0.41, an LDH.30µM ([4]; 30 µM) of -0.68 and an MTT.1µM ([5]; 1 µM, cell viability) of 105.86. It also gave an MTT.3µM ([5]; 3 µM, cell viability) of 108.44, an MTT.10µM ([5]; 10 µM, cell viability) of 106.4 and an MTT.30µM ([5]; 30 µM, cell viability) of 104.14. For the same compound, the “toxicity class in the MTT assay” value ([5]; 24-h exposure, classified at 10 μM) was “nontoxic (nontoxic compounds (cell viability >90%))”.

With `CCN(CC)c1ccc(NC(=O)c2c(-c3ccccc3Cl)noc2C)cc1` [Compound 39k] the activity at 3 µM [1, 16] was 107%, the “effect on NKX2-5 transcriptional activity (in words)” value [2] was “did not affect” and the activity at 3 µM [2, 16] was 157%. For the same compound, the “effect on GATA4 transcriptional activity (in words)” value ([3]; 10 µM) was “slightly increased”, the activity at 3 µM [3, 16] was 86.1% and the activity at 10 µM ([3]; COS-1, compound at 10 µM, luciferase reporter activity, % of control) was 112%.

`CCN(CC)c1ccc(NC(=O)c2c(-c3ccoc3)noc2C)cc1` [Compound 39n] gave an activity at 3 µM [1, 10] of 119%, an activity at 10 µM [1, 13] of 105% and an activity at 3 µM [2, 11] of 122%. The activity at 10 µM [2, 14] was 106% and the activity at 3 µM [3, 12] was 108%.

Compound `CCN(CC)c1ccc(NC(=O)c2cn(C)nc2-c2cc(C)on2)cc1` [Compound 47f] has an activity at 3 µM [1, 8] of 110% and an activity at 3 µM [2, 8] of 108%.

`CCN(CC)c1ccc(NC(=O)c2cn(C)cc2-c2cc(C)on2)cc1` [Compound 47m] gave an activity at 3 µM [1, 8] of 116%, an activity at 3 µM [2, 8] of 116% and an activity at 10 µM [2, 9] of 114%.

Work on `CCN(CC)c1ccc(NC(=O)c2c(-n3cccc3)sc(C)c2C)cc1` [Compound 56] yielded an activity at 3 µM [1, 10] of 93.8% and an activity at 3 µM [2, 11] of 102%.

`Cc1cc(-c2onc(C)c2C(=O)Nc2ccc3oc(-c4ccccc4)cc(=O)c3c2)no1` [Compound 73] showed an activity at 3 µM [1, 10] of 107%, an activity at 10 µM [1, 13] of 114% and an activity at 3 µM [3, 12] of 127%. The activity at 10 µM [3, 15] was 123%.
